Measured values taken from ChEMBL document CHEMBL3885881, “DrugMatrix”.

Organism: Rattus norvegicus
Experiment: DrugMatrix - Regimen: Daily Repeat
Format: toxicity, organism-based, Sprague-Dawley
Design: regimen Daily Repeat, gender Male, age 6-8 weeks
Details: in vivo, po, route oral GAVAGE, […]; for ABSOLUTE BASOPHIL / ABSOLUTE EOSINOPHIL / ABSOLUTE LYMPHOCYTE / ABSOLUTE MONOCYTE / ABSOLUTE SEGMENTED NEUTROPHIL / BASOPHIL / EOSINOPHIL / ERYTHROCYTE COUNT / HEMATOCRIT / HEMOGLOBIN / LEUKOCYTE COUNT / LYMPHOCYTE / MEAN CORPUSCULAR HEMOGLOBIN / MEAN CORPUSCULAR HEMOGLOBIN CONCENTRATION / MEAN CORPUSCULAR VOLUME / MONOCYTE / NEUTROPHIL / NUCLEATED RED BLOOD CELLS / PLATELET COUNT: tissue Blood; for ALANINE AMINOTRANSFERASE / ALBUMIN / ALKALINE PHOSPHATASE / ASPARTATE AMINOTRANSFERASE / BLOOD UREA NITROGEN / CARBON DIOXIDE / CHLORIDE / CHOLESTEROL / CREATINE PHOSPHOKINASE / CREATININE / GLUCOSE / LACTATE DEHYDROGENASE / LIPASE / PHOSPHORUS / POTASSIUM / SODIUM / TOTAL BILIRUBIN / TOTAL PROTEIN / URIC ACID: tissue Plasma
[1] = 10 mg/kg, 120 h, dose level Low, time 5 day
[2] = 1100 mg/kg, 72 h, dose level High, time 3 day
[3] = 1100 mg/kg, 120 h, dose level High, time 5 day

SMILES: COCCOC(=O)C1=C(C)NC(C)=C(C(=O)OC(C)C)C1c1cccc([N+](=O)[O-])c1 (centres undefined) [NIMODIPINE]
- ABSOLUTE BASOPHIL [1]: 0 CELLS/uL
- ABSOLUTE EOSINOPHIL [1]: 0 CELLS/uL
- ABSOLUTE LYMPHOCYTE [1]: 13499.67 CELLS/uL
- ABSOLUTE MONOCYTE [1]: 96.33 CELLS/uL
- ABSOLUTE SEGMENTED NEUTROPHIL [1]: 1037.33 CELLS/uL
- BASOPHIL [1]: 0%
- EOSINOPHIL [1]: 0%
- ERYTHROCYTE COUNT [1]: 5.7 x10E6/uL
- HEMATOCRIT [1]: 36.23%
- HEMOGLOBIN [1]: 13.9 G/DL
- LEUKOCYTE COUNT [1]: 14.63 x10E3/uL
- LYMPHOCYTE [1]: 92.67%
- MEAN CORPUSCULAR HEMOGLOBIN [1]: 24.4 pg
- MEAN CORPUSCULAR HEMOGLOBIN CONCENTRATION [1]: 38.37 G/DL
- MEAN CORPUSCULAR VOLUME [1]: 63.63 fL
- MONOCYTE [1]: 0.67%
- NEUTROPHIL [1]: 6.67%
- NUCLEATED RED BLOOD CELLS [1]: 0 /100WBC
- PLATELET COUNT [1]: 940 x10E3/uL
- ALANINE AMINOTRANSFERASE [1]: 59.33 u/L
- ALBUMIN [1]: 4.3 G/DL
- ALKALINE PHOSPHATASE [1]: 389.33 u/L
- ASPARTATE AMINOTRANSFERASE [1]: 102.33 u/L
- BLOOD UREA NITROGEN [1]: 15 mg/dL
- CARBON DIOXIDE [1]: 31.67 mmol/L
- CHLORIDE [1]: 100 MEQ/L
- CHOLESTEROL [1]: 63 mg/dL
- CREATINE PHOSPHOKINASE [1]: 716.33 u/L
- CREATININE [1]: 0.16 mg/dL
- GLUCOSE [1]: 145.33 mg/dL
- LACTATE DEHYDROGENASE [1]: 194.33 u/L
- LIPASE [1]: 9.33 u/L
- PHOSPHORUS [1]: 10.4 mg/dL
- POTASSIUM [1]: 5.95 MEQ/L
- SODIUM [1]: 143.1 MEQ/L
- TOTAL BILIRUBIN [1]: 0.23 mg/dL
- TOTAL PROTEIN [1]: 6.2 G/DL
- URIC ACID [1]: 0.83 mg/dL
- ABSOLUTE BASOPHIL [2]: 0 CELLS/uL
- ABSOLUTE EOSINOPHIL [2]: 0 CELLS/uL
- ABSOLUTE LYMPHOCYTE [2]: 8640.33 CELLS/uL
- ABSOLUTE MONOCYTE [2]: 0 CELLS/uL
- ABSOLUTE SEGMENTED NEUTROPHIL [2]: 859.67 CELLS/uL
- BASOPHIL [2]: 0%
- EOSINOPHIL [2]: 0%
- ERYTHROCYTE COUNT [2]: 6.21 x10E6/uL
- HEMATOCRIT [2]: 37.2%
- HEMOGLOBIN [2]: 14.77 G/DL
- LEUKOCYTE COUNT [2]: 9.5 x10E3/uL
- LYMPHOCYTE [2]: 91%
- MEAN CORPUSCULAR HEMOGLOBIN [2]: 23.77 pg
- MEAN CORPUSCULAR HEMOGLOBIN CONCENTRATION [2]: 39.7 G/DL
- MEAN CORPUSCULAR VOLUME [2]: 59.87 fL
- MONOCYTE [2]: 0%
- NEUTROPHIL [2]: 9%
- NUCLEATED RED BLOOD CELLS [2]: 0.33 /100WBC
- PLATELET COUNT [2]: 1341.67 x10E3/uL
- ALANINE AMINOTRANSFERASE [2]: 90 u/L
- ALBUMIN [2]: 4.17 G/DL
- ALKALINE PHOSPHATASE [2]: 427.67 u/L
- ASPARTATE AMINOTRANSFERASE [2]: 82.67 u/L
- BLOOD UREA NITROGEN [2]: 13 mg/dL
- CARBON DIOXIDE [2]: 27.33 mmol/L
- CHLORIDE [2]: 97.67 MEQ/L
- CHOLESTEROL [2]: 77.67 mg/dL
- CREATINE PHOSPHOKINASE [2]: 248.33 u/L
- CREATININE [2]: 0.17 mg/dL
- GLUCOSE [2]: 211.67 mg/dL
- LACTATE DEHYDROGENASE [2]: 205.33 u/L
- LIPASE [2]: 11.33 u/L
- PHOSPHORUS [2]: 10.23 mg/dL
- POTASSIUM [2]: 4.32 MEQ/L
- SODIUM [2]: 139.8 MEQ/L
- TOTAL BILIRUBIN [2]: 0.4 mg/dL
- TOTAL PROTEIN [2]: 6.33 G/DL
- URIC ACID [2]: 0.47 mg/dL
- ABSOLUTE BASOPHIL [3]: 0 CELLS/uL
- ABSOLUTE EOSINOPHIL [3]: 0 CELLS/uL
- ABSOLUTE LYMPHOCYTE [3]: 5312.67 CELLS/uL
- ABSOLUTE MONOCYTE [3]: 159.33 CELLS/uL
- ABSOLUTE SEGMENTED NEUTROPHIL [3]: 1728 CELLS/uL
- BASOPHIL [3]: 0%
- EOSINOPHIL [3]: 0%
- ERYTHROCYTE COUNT [3]: 7.19 x10E6/uL
- HEMATOCRIT [3]: 42.83%
- HEMOGLOBIN [3]: 16.87 G/DL
- LEUKOCYTE COUNT [3]: 7.2 x10E3/uL
- LYMPHOCYTE [3]: 75.67%
- MEAN CORPUSCULAR HEMOGLOBIN [3]: 23.43 pg
- MEAN CORPUSCULAR HEMOGLOBIN CONCENTRATION [3]: 39.33 G/DL
- MEAN CORPUSCULAR VOLUME [3]: 59.63 fL
- MONOCYTE [3]: 2%
- NEUTROPHIL [3]: 22.33%
- NUCLEATED RED BLOOD CELLS [3]: 0 /100WBC
- PLATELET COUNT [3]: 1410 x10E3/uL
- ALANINE AMINOTRANSFERASE [3]: 65.33 u/L
- ALBUMIN [3]: 4 G/DL
- ALKALINE PHOSPHATASE [3]: 160 u/L
- ASPARTATE AMINOTRANSFERASE [3]: 89.33 u/L
- BLOOD UREA NITROGEN [3]: 43.67 mg/dL
- CARBON DIOXIDE [3]: 34.33 mmol/L
- CHLORIDE [3]: 84 MEQ/L
- CHOLESTEROL [3]: 75 mg/dL
- CREATINE PHOSPHOKINASE [3]: 283.67 u/L
- CREATININE [3]: 0.22 mg/dL
- GLUCOSE [3]: 198.67 mg/dL
- LACTATE DEHYDROGENASE [3]: 180 u/L
- LIPASE [3]: 12.33 u/L
- PHOSPHORUS [3]: 9.97 mg/dL
- POTASSIUM [3]: 3.85 MEQ/L
- SODIUM [3]: 133.83 MEQ/L
- TOTAL BILIRUBIN [3]: 0.3 mg/dL
- TOTAL PROTEIN [3]: 6.2 G/DL
- URIC ACID [3]: 0.3 mg/dL
